# Data from ChEMBL document CHEMBL1201862, “PubChem BioAssay data set” (2004).
#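 1) Cells in 96-well plates. 2) Compound, 48 h, 5 concentrations. 3) Linear interpolation between surrounding doses. 4) Unreached endpoint = highest concentration. GI50 = concentration required for 50% inhibition of growth.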 Calls of active or inactive are those of the source. Rule as the data show it: active = GI50 up to about 1.1 µM and inactive = higher.
# How the values were obtained:
# Experiment in all cases: NCI tumour cell line growth inhibition, 48 h
# [1] = system: ACHN
# [2] = system: CAKI-1
# [3] = system: HCT-15
# [4] = system: K562
# [5] = system: LOX IMVI
# [6] = system: MCF7
# [7] = system: Malme-3M
# [8] = system: NCI-H226
# [9] = system: NCI-H23
# [10] = system: OVCAR-3
# [11] = system: OVCAR-4
# [12] = system: OVCAR-5
# [13] = system: RPMI-8226
# [14] = system: RXF 393
# [15] = system: SF-539
# [16] = system: SNB-75
# [17] = system: SW-620
# [18] = system: U-251
# [19] = system: UACC-62
# [20] = system: UO-31
Structure (SMILES),GI50 [1],GI50 [2],GI50 [3] [µM],GI50 [4],GI50 [5],GI50 [6],GI50 [7],GI50 [8],GI50 [9],GI50 [10],GI50 [11],GI50 [12],GI50 [13],GI50 [14],GI50 [15],GI50 [16],GI50 [17],GI50 [18],GI50 [19],GI50 [20]
COC1=CC(=O)c2c(cc(COP(N)(=O)N(CCBr)CCBr)n2C)C1=O (stereo not given),< 0.01 µM (active),< 0.01 µM (active),0.242,0.135 µM (active),< 0.01 µM (active),< 0.01 µM (active),0.308 µM (active),< 0.01 µM (active),< 0.01 µM (active),0.0822 µM (active),1.66 µM (inactive),0.104 µM (active),< 0.01 µM (active),0.0719 µM (active),< 0.01 µM (active),< 0.01 µM (active),< 0.01 µM (active),< 0.01 µM (active),< 0.01 µM (active),0.131 µM (active)
c1ccc(COc2ccc(C[P+](c3ccccc3)(c3ccccc3)c3ccccc3)cc2)cc1,0.676 µM (active),6.79 µM (inactive),2.82,0.0556 µM (active),0.251 µM (active),0.1 µM (active),0.361 µM (active),0.504 µM (active),0.2 µM (active),0.146 µM (active),0.245 µM (active),0.269 µM (active),0.0257 µM (active),0.0395 µM (active),0.284 µM (active),0.148 µM (active),0.272 µM (active),0.102 µM (active),0.195 µM (active),2.94 µM (inactive)
CC(=O)Nc1ccc(S(=O)(=O)/N=C2\C=CC(=O)c3ccccc32)cc1,7.35 µM (inactive),17.3 µM (inactive),7.62,2.57 µM (inactive),2.04 µM (inactive),5.01 µM (inactive),3.65 µM (inactive),5.97 µM (inactive),4.22 µM (inactive),2.45 µM (inactive),1.87 µM (inactive),8.55 µM (inactive),4.56 µM (inactive),6.38 µM (inactive),7.66 µM (inactive),5.4 µM (inactive),6.62 µM (inactive),5.81 µM (inactive),5.51 µM (inactive),7.48 µM (inactive)
Cc1nc2ccccc2c(=O)n1/N=C(\N=N\c1cc(Cl)ccc1Cl)c1ccccc1,> 84.9 µM (inactive),> 57.3 µM (inactive),31.2,> 100 µM (inactive),40.6 µM (inactive),8.04 µM (inactive),41 µM (inactive),43.1 µM (inactive),50.7 µM (inactive),53.2 µM (inactive),51.8 µM (inactive),> 100 µM (inactive),41.4 µM (inactive),63.5 µM (inactive),46.5 µM (inactive),16.1 µM (inactive),32.1 µM (inactive),27.1 µM (inactive),45.8 µM (inactive),22.9 µM (inactive)
CC(=O)OC1CCC2(C)C(=CCC3C2CCC2(C)C3CC3OC4(CCC(C)CN4)C(C)C32)C1 (stereo not given),> 100 µM (inactive),> 100 µM (inactive),> 100,> 100 µM (inactive),> 100 µM (inactive),> 100 µM (inactive),> 100 µM (inactive),> 100 µM (inactive),> 100 µM (inactive),> 100 µM (inactive),> 100 µM (inactive),> 100 µM (inactive),> 100 µM (inactive),> 100 µM (inactive),> 100 µM (inactive),> 100 µM (inactive),> 100 µM (inactive),> 100 µM (inactive),> 100 µM (inactive),> 100 µM (inactive)
O=C(O)/C(Cc1c[nH]nn1)=N\O,> 100 µM (inactive),> 100 µM (inactive),> 100,> 100 µM (inactive),> 100 µM (inactive),> 100 µM (inactive),> 100 µM (inactive),> 100 µM (inactive),> 100 µM (inactive),> 100 µM (inactive),> 100 µM (inactive),> 100 µM (inactive),> 100 µM (inactive),> 100 µM (inactive),> 100 µM (inactive),> 100 µM (inactive),> 100 µM (inactive),> 100 µM (inactive),> 100 µM (inactive),> 100 µM (inactive)
O=NN(CCCl)C(=O)NCCCl [CARMUSTINE],83 µM (inactive),71.9 µM (inactive),64.6,45.8 µM (inactive),38 µM (inactive),68.9 µM (inactive),81.5 µM (inactive),105 µM (inactive),88.1 µM (inactive),83.6 µM (inactive),87.9 µM (inactive),105 µM (inactive),51.3 µM (inactive),76.2 µM (inactive),44.8 µM (inactive),52.2 µM (inactive),52.2 µM (inactive),52.1 µM (inactive),23.8 µM (inactive),98.2 µM (inactive)
CC(C(=O)OCc1ccccc1)(c1ccco1)N1C(=O)OC(c2ccccc2)C1c1ccccc1 (stereo not given),> 100 µM (inactive),> 100 µM (inactive),> 100,7.18 µM (inactive),14.7 µM (inactive),> 100 µM (inactive),> 100 µM (inactive),> 100 µM (inactive),> 100 µM (inactive),> 100 µM (inactive),> 100 µM (inactive),> 100 µM (inactive),4.37 µM (inactive),> 100 µM (inactive),> 100 µM (inactive),> 100 µM (inactive),> 100 µM (inactive),> 100 µM (inactive),97.1 µM (inactive),6.34 µM (inactive)
Cc1c(CCCl)c(N=[N+]=[N-])n2c(nc3ccccc32)c1C#N,1.22 µM (inactive),1.39 µM (inactive),1.3,0.29 µM (active),0.902 µM (active),0.47 µM (active),1.45 µM (inactive),1.82 µM (inactive),1.41 µM (inactive),1.39 µM (inactive),1.53 µM (inactive),1.94 µM (inactive),0.385 µM (active),1.4 µM (inactive),1.82 µM (inactive),1.46 µM (inactive),0.355 µM (active),2.17 µM (inactive),1.34 µM (inactive),1.65 µM (inactive)
CCOC(=O)c1ccc(Nc2cnc3cc(C(F)(F)F)ccc3n2)cc1,> 100 µM (inactive),> 100 µM (inactive),> 100,> 100 µM (inactive),> 100 µM (inactive),> 10 µM (inactive),> 100 µM (inactive),> 100 µM (inactive),> 100 µM (inactive),> 100 µM (inactive),> 100 µM (inactive),> 100 µM (inactive),> 100 µM (inactive),> 10 µM (inactive),79.6 µM (inactive),44.9 µM (inactive),> 100 µM (inactive),> 100 µM (inactive),> 100 µM (inactive),> 100 µM (inactive)
O=C(c1ccccc1)c1ccc(C(c2c(O)c3ccccc3oc2=O)c2c(O)c3ccccc3oc2=O)cc1,20 µM (inactive),16.8 µM (inactive),30.5,33.5 µM (inactive),29.9 µM (inactive),34.5 µM (inactive),17.9 µM (inactive),23.3 µM (inactive),20 µM (inactive),26.2 µM (inactive),26.9 µM (inactive),23.4 µM (inactive),18.5 µM (inactive),27.2 µM (inactive),30.3 µM (inactive),19.1 µM (inactive),43.9 µM (inactive),26.6 µM (inactive),17.3 µM (inactive),14.8 µM (inactive)
CCOC(=O)C1(C(N)=O)C(=O)c2ccncc2C1=O (stereo not given),> 100 µM (inactive),> 100 µM (inactive),> 100,> 100 µM (inactive),> 100 µM (inactive),> 100 µM (inactive),> 100 µM (inactive),> 100 µM (inactive),> 100 µM (inactive),> 100 µM (inactive),> 100 µM (inactive),> 100 µM (inactive),> 100 µM (inactive),> 100 µM (inactive),> 100 µM (inactive),> 100 µM (inactive),> 100 µM (inactive),> 100 µM (inactive),> 100 µM (inactive),> 100 µM (inactive)
OCC1OC(c2n[nH]c3c(O)ncnc23)C(O)C1O (stereo not given),4.01 µM (inactive),6.81 µM (inactive),6.03,7.48 µM (inactive),3.92 µM (inactive),28.7 µM (inactive),16.1 µM (inactive),44.9 µM (inactive),32.4 µM (inactive),9.18 µM (inactive),7.89 µM (inactive),18.9 µM (inactive),21.9 µM (inactive),58.6 µM (inactive),26 µM (inactive),> 100 µM (inactive),4.17 µM (inactive),47.9 µM (inactive),31.6 µM (inactive),8.79 µM (inactive)
COC(=O)/C=C1/OC(c2ccc(C)cc2)=C(Cl)C1=O,16.7 µM (inactive),16 µM (inactive),9.25,4.97 µM (inactive),9.2 µM (inactive),16.1 µM (inactive),17.7 µM (inactive),23 µM (inactive),19 µM (inactive),12.4 µM (inactive),13.3 µM (inactive),19.1 µM (inactive),3.18 µM (inactive),7.66 µM (inactive),16.6 µM (inactive),16.7 µM (inactive),10.7 µM (inactive),12 µM (inactive),17.1 µM (inactive),17.5 µM (inactive)
